Results: PubChem BioAssay (NCI)
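The compound was tested at five concentrations on cells cultured in 96-well plates, with a 48-hour exposure period. At the GI50, growth is halved. TGI is the concentration that stops growth completely.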

Experiments:
Test in all cases: NCI tumour cell line growth inhibition, 48 h
[1] = system: CAKI-1 renal
[2] = system: K-562 leukemia
[3] = system: MALME-3M melanoma
[4] = system: MCF7 breast
[5] = system: MDA-MB-231 breast
[6] = system: NCI-H460 lung
[7] = system: PC-3 prostate
[8] = system: SNB-19 CNS
[9] = system: TK-10 renal

What does the source list for `COc1ccc(-c2cc(-c3cc(Cl)ccc3Cl)nc3n[nH]c(N)c23)cc1`?
GI50 [1]: 4.05 µM; TGI [1]: 24.4 µM; GI50 [2]: 15.8 µM; TGI [2]: > 100 µM; GI50 [3]: 46.8 µM; TGI [3]: > 100 µM; GI50 [4]: 3.45 µM; TGI [4]: > 100 µM; GI50 [5]: 34 µM; TGI [5]: > 100 µM; GI50 [6]: 6.68 µM; TGI [6]: 39.3 µM; GI50 [7]: 35.9 µM; TGI [7]: > 100 µM; GI50 [8]: 31.8 µM; TGI [8]: > 100 µM; GI50 [9]: 41.2 µM; TGI [9]: > 100 µM

With `O=C(O)CCNc1ccccc1C(=O)O` as the compound, how does the TGI [1] read?
The TGI was greater than 100 µM.

And the TGI [2]?
The TGI was greater than 100 µM.

And the TGI [3]?
The TGI was greater than 100 µM.

What about the TGI [4] of the same compound?
Its TGI is greater than 100 µM.

What about the TGI [5] of the same compound?
The TGI was greater than 100 µM.

And the TGI [6]?
The TGI was greater than 100 µM.

What about the TGI [7] of the same compound?
Its TGI is greater than 100 µM.

And the TGI [8]?
Its TGI is greater than 100 µM.

And the TGI [9]?
Its TGI is greater than 100 µM.

How did the GI50 [1] turn out when `CC(=O)N[C@@H](Cc1ccc(OP(=O)(O)O)cc1)C(=O)N[C@H]1CCC(=O)N2CCC[C@@H](C(=O)NCc3ccc(Cl)cc3)N2C1=O` was run?
Its GI50 is greater than 25 µM.

And the TGI [1]?
Its TGI is greater than 25 µM.

And the GI50 [2]?
Its GI50 is greater than 25 µM.

And the TGI [2]?
The TGI was greater than 25 µM.

And the GI50 [3]?
Its GI50 is greater than 25 µM.

And the TGI [3]?
Its TGI is greater than 25 µM.

What about the GI50 [4] of the same compound?
The GI50 was greater than 25 µM.

And the TGI [4]?
Its TGI is greater than 25 µM.

What about the GI50 [5] of the same compound?
Its GI50 is greater than 25 µM.

What about the TGI [5] of the same compound?
The TGI was greater than 25 µM.

And the GI50 [6]?
The GI50 was greater than 25 µM.

And the TGI [6]?
The TGI was greater than 25 µM.

And the GI50 [7]?
Its GI50 is greater than 25 µM.

What about the TGI [7] of the same compound?
Its TGI is greater than 25 µM.

What about the GI50 [8] of the same compound?
The GI50 was greater than 25 µM.

And the TGI [8]?
The TGI was greater than 25 µM.

And the GI50 [9]?
Its GI50 is greater than 25 µM.

And the TGI [9]?
Its TGI is greater than 25 µM.

How did the TGI [1] turn out when `COc1ccc2oc(=O)cc(C(c3ccc[nH]3)c3ccc[nH]3)c2c1` was run?
Its TGI is 13.1 µM.

What about the GI50 [2] of the same compound?
Its GI50 is 0.118 µM.

What about the TGI [2] of the same compound?
Its TGI is 20.8 µM.

And the GI50 [3]?
The GI50 was 0.783 µM.

What about the TGI [3] of the same compound?
The TGI was 17.7 µM.

And the GI50 [4]?
Its GI50 is 0.108 µM.

And the TGI [4]?
The TGI was 14.5 µM.

And the GI50 [5]?
Its GI50 is 0.109 µM.

And the TGI [5]?
The TGI was 6.05 µM.

And the GI50 [6]?
Its GI50 is 0.107 µM.

What about the TGI [6] of the same compound?
Its TGI is 10.3 µM.

And the GI50 [7]?
Its GI50 is 0.108 µM.

What about the TGI [7] of the same compound?
The TGI was 15.5 µM.

What about the GI50 [8] of the same compound?
Its GI50 is 0.132 µM.

What about the TGI [8] of the same compound?
Its TGI is 16.4 µM.

And the GI50 [9]?
The GI50 was 0.155 µM.

What about the TGI [9] of the same compound?
Its TGI is 15.6 µM.

`FC(F)(F)c1nc(N2CCCC2)ncc1-c1nnnn1-c1ccc(Cl)cc1` was tested. Which GI50 [1] did it give?
The GI50 was 17.5 µM.

What about the TGI [1] of the same compound?
The TGI was 88.2 µM.

What about the GI50 [2] of the same compound?
The GI50 was 3 µM.

And the TGI [2]?
Its TGI is 22.6 µM.

And the GI50 [3]?
Its GI50 is 16.9 µM.

What about the TGI [3] of the same compound?
Its TGI is 42.6 µM.

And the GI50 [4]?
Its GI50 is 14.3 µM.

And the TGI [4]?
The TGI was greater than 100 µM.

And the GI50 [5]?
Its GI50 is 24.6 µM.

What about the TGI [5] of the same compound?
The TGI was greater than 100 µM.

What about the GI50 [6] of the same compound?
The GI50 was 11.7 µM.

What about the TGI [6] of the same compound?
The TGI was 90.2 µM.

What about the GI50 [7] of the same compound?
Its GI50 is 16 µM.

And the TGI [7]?
Its TGI is 82.2 µM.

What about the GI50 [8] of the same compound?
The GI50 was 30.9 µM.

What about the TGI [8] of the same compound?
Its TGI is greater than 100 µM.

What about the GI50 [9] of the same compound?
Its GI50 is 15.4 µM.

And the TGI [9]?
Its TGI is 75.6 µM.

How did the TGI [1] turn out when `CN(Cc1cnc2nc(N)nc(N)c2n1)c1ccc(C(=O)NC(CCC(=O)O)C(=O)O)cc1C(F)(F)F` (stereo not given) was run?
Its TGI is greater than 100 µM.

What about the TGI [2] of the same compound?
The TGI was greater than 100 µM.

And the TGI [3]?
Its TGI is greater than 100 µM.

And the TGI [4]?
Its TGI is greater than 100 µM.

What about the TGI [5] of the same compound?
The TGI was greater than 100 µM.

And the TGI [6]?
The TGI was greater than 100 µM.

What about the TGI [7] of the same compound?
The TGI was greater than 100 µM.

And the TGI [8]?
Its TGI is greater than 100 µM.

And the TGI [9]?
Its TGI is greater than 100 µM.

For `N=C(N)c1ccc(OCc2cccc(COc3ccc(C(=N)N)cc3)c2)cc1`, which GI50 [1] is on record?
The GI50 was 11.4 µM.

And the TGI [1]?
Its TGI is 27.2 µM.

And the GI50 [2]?
The GI50 was 3.62 µM.

What about the TGI [2] of the same compound?
The TGI was 19 µM.

And the GI50 [3]?
The GI50 was 1.77 µM.

What about the TGI [3] of the same compound?
The TGI was 6.01 µM.

And the GI50 [4]?
Its GI50 is 4.5 µM.

And the TGI [4]?
The TGI was 14.9 µM.

And the GI50 [5]?
The GI50 was 4.09 µM.

And the TGI [5]?
Its TGI is 15.9 µM.

What about the GI50 [6] of the same compound?
The GI50 was 4.27 µM.

And the TGI [6]?
Its TGI is 20 µM.

What about the GI50 [7] of the same compound?
The GI50 was 12.4 µM.

What about the TGI [7] of the same compound?
Its TGI is 25.8 µM.

What about the GI50 [8] of the same compound?
Its GI50 is 5.75 µM.

And the TGI [8]?
The TGI was greater than 100 µM.

What about the GI50 [9] of the same compound?
The GI50 was 7.61 µM.

And the TGI [9]?
The TGI was 21 µM.

`Nc1c(C(=O)c2cccc(CCCN3CCOCC3)c2)cnn1-c1ccc(F)cc1` was tested. Which GI50 [1] did it give?
Its GI50 is greater than 25 µM.

What about the TGI [1] of the same compound?
The TGI was greater than 25 µM.

What about the GI50 [2] of the same compound?
Its GI50 is greater than 25 µM.

And the TGI [2]?
The TGI was greater than 25 µM.

What about the GI50 [3] of the same compound?
The GI50 was greater than 25 µM.

And the TGI [3]?
The TGI was greater than 25 µM.

What about the GI50 [4] of the same compound?
The GI50 was greater than 25 µM.

And the TGI [4]?
Its TGI is greater than 25 µM.

And the GI50 [5]?
The GI50 was greater than 25 µM.

What about the TGI [5] of the same compound?
Its TGI is greater than 25 µM.

And the GI50 [6]?
Its GI50 is greater than 25 µM.

And the TGI [6]?
Its TGI is greater than 25 µM.

And the GI50 [7]?
The GI50 was greater than 25 µM.

What about the TGI [7] of the same compound?
The TGI was greater than 25 µM.

And the GI50 [8]?
The GI50 was greater than 25 µM.

And the TGI [8]?
The TGI was greater than 25 µM.

And the GI50 [9]?
Its GI50 is greater than 25 µM.

And the TGI [9]?
The TGI was greater than 25 µM.
